For this assay, the target named is T1, BCL6 (Homo sapiens, UniProt P41182).
T1 construct: endogenous in cells; host or cells: T47D breast cancer epithelial cells
In words: Immunofluorescence protocol for high content imaging of BCL6 (degradation) in T47D cells, 3 days compound treatment. Type of assay: cell-based. As to conditions: for Dmax: read-out: Mean Dmax (%)** category; for DC50: read-out: Mean DC50 (nM)* category. In short, it runs like this: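 T47D cells in RPMI1640-10% FBS were treated with an 11-point 3-fold dilution series (final top 0.1 or 1 μM) for 3 days at 37° C. After PFA fixation and Triton permeabilization, cells were immunostained with rabbit anti-BCL6 (1:300, overnight 4° C), Alexa-488 secondary, CellMask-647 and Hoechst, then imaged at 10×, 4 fields/well.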

[1] abbreviates: T47D cells, 3 days compound treatment.

The source of these data is patent US11986532B2 (Arvinas Operations, Inc., priority 2021, dated 2024).

Read-outs that look alike come from different tables or passages of the source. A value given as a limit tells only on which side of the number the result lay.

By Dmax is commonly meant the largest share of the target that was removed. One may read the DC50 as the concentration at which degradation of the target reaches its halfway point. In the case of `CNC(=O)COc1cc2cc(Nc3nc(N4CCC(O[C@H]5C[C@H](N6C7CCC6CN(c6ccc8c(c6)C(=O)N(C6CCC(=O)NC6=O)C8=O)C7)C5)CC4)ncc3Cl)ccc2n(C(C)C)c1=O` (stereo partly drawn) [Compound 372, 2-({6-[(5-chloro-2-{4-[(1r,3r)-3-{3-[2-(2,6-dioxopiperidin-3-yl)-1,3-dioxo-2,3-dihydro-1H-isoindol-5-yl]-3,8-diazabicyclo[3.2.1]octan-8-yl}cyclobutoxy]piperidin-1-yl}pyrimidin-4-yl)amino]-2-oxo-1-(propan-2-yl)-1,2-dihydroquinolin-3-yl}oxy)-N-methylacetamide], the DC50 is less than 10 nM. In addition, the Dmax (T47D) was in the range of 50 to 70%.

For `CNC(=O)COc1cc2cc(Nc3nc(N4CCC(CN5CCC6(CC5)CC5(CN(c7ccc8c(c7)CN(C7CCC(=O)NC7=O)C8=O)C5)C6)CC4)ncc3Cl)ccc2n(C(C)C)c1=O` (stereo not drawn) [Compound 168, 2-{[6-({5-chloro-2-[4-({2-[2-(2,6-dioxopiperidin-3-yl)-1-oxo-2,3-dihydro-1H-isoindol-5-yl]-2,9-diazadispiro[3.1.5^6.1^4]dodecan-9-yl}methyl)piperidin-1-yl]pyrimidin-4-yl}amino)-2-oxo-1-(propan-2-yl)-1,2-dihydroquinolin-3-yl]oxy}-N-methylacetamide], under setting [1], the DC50 is less than 10 nM and the Dmax lay within 50 to 70%.

As to `CNC(=O)COc1cc2cc(Nc3nc(N4CCC(O[C@H]5C[C@H](N6CC7(CN(c8ccc9c(c8C)C(=O)N(C8CCC(=O)NC8=O)C9=O)C7)C6)C5)CC4)ncc3Cl)ccc2n(C(C)C)c1=O` (stereo partly drawn) [Compound 420, 2-({6-[(5-chloro-2-{4-[(1r,3r)-3-{6-[2-(2,6-dioxopiperidin-3-yl)-4-methyl-1,3-dioxo-2,3-dihydro-1H-isoindol-5-yl]-2,6-diazaspiro[3.3]heptan-2-yl}cyclobutoxy]piperidin-1-yl}pyrimidin-4-yl)amino]-2-oxo-1-(propan-2-yl)-1,2-dihydroquinolin-3-yl}oxy)-N-methylacetamide], the 50% degradation concentration (DC50) is less than 10 nM. Also, the Dmax (T47D) was not below 70%.

With `CNC(=O)COc1cc2c(F)c(Nc3nc(N4CCC(O[C@H]5C[C@H](N6CCC(c7ccc8c(c7F)CN(C7CCC(=O)NC7=O)C8=O)CC6)C5)CC4)ncc3Cl)ccc2n(C(C)C)c1=O` (stereo partly drawn) [Compound 173], under setting [1], the DC50 was less than 10 nM and the Dmax was not below 70%.

Consider `CNC(=O)COc1cc2cc(Nc3nc(N4CCN(CC5CCN(c6ccc(F)c7c6CN(C6CCC(=O)NC6=O)C7=O)CC5)CC4)ncc3Cl)ccc2n(C(C)C)c1=O` (stereo not drawn) [Compound 120, 2-{[6-({5-chloro-2-[4-({1-[2-(2,6-dioxopiperidin-3-yl)-7-fluoro-1-oxo-2,3-dihydro-1H-isoindol-4-yl]piperidin-4-yl}methyl)piperazin-1-yl]pyrimidin-4-yl}amino)-2-oxo-1-(propan-2-yl)-1,2-dihydroquinolin-3-yl]oxy}-N-methylacetamide], for which, under setting [1], the DC50 was less than 10 nM and the Dmax was in the range of 50 to 70%.

Consider `CNC(=O)COc1cc2cc(Nc3nc(N4CCC5(CCN(CC6(F)CCN(c7ccc(F)c8c7CN(C7CCC(=O)NC7=O)C8=O)CC6)CC5)CC4)ncc3Cl)ccc2n(C(C)C)c1=O` (stereo not drawn) [Compound 129, 2-{[6-({5-chloro-2-[9-({1-[2-(2,6-dioxopiperidin-3-yl)-7-fluoro-1-oxo-2,3-dihydro-1H-isoindol-4-yl]-4-fluoropiperidin-4-yl}methyl)-3,9-diazaspiro[5.5]undecan-3-yl]pyrimidin-4-yl}amino)-2-oxo-1-(propan-2-yl)-1,2-dihydroquinolin-3-yl]oxy}-N-methylacetamide], for which, under setting [1], the DC50 is less than 10 nM and the Dmax is 50 to 70%.

In the case of `CNC(=O)COc1cc2cc(Nc3nc(N4CCC(O[C@H]5C[C@H](N6CCC(c7cc(F)c8c(c7OC)CN(C7CCC(=O)NC7=O)C8=O)CC6)C5)CC4)ncc3Cl)ccc2n(C(C)C)c1=O` (stereo partly drawn) [Compound 128, 2-({6-[(5-chloro-2-{4-[(1r,3r)-3-{4-[2-(2,6-dioxopiperidin-3-yl)-7-fluoro-4-methoxy-1-oxo-2,3-dihydro-1H-isoindol-5-yl]piperidin-1-yl}cyclobutoxy]piperidin-1-yl}pyrimidin-4-yl)amino]-2-oxo-1-(propan-2-yl)-1,2-dihydroquinolin-3-yl}oxy)-N-methylacetamide], under setting [1], the DC50 was less than 10 nM and the Dmax was in the range of 50 to 70%.

With `CNC(=O)COc1cc2cc(Nc3nc(N4CCN(CC5CCC6(CC5)CN(c5ccc7c(c5OC)CN(C5CCC(=O)NC5=O)C7=O)C6)CC4)ncc3Cl)ccc2n(C(C)C)c1=O` (stereo not drawn) [Compound 331, 2-{[6-({5-chloro-2-[4-({2-[2-(2,6-dioxopiperidin-3-yl)-4-methoxy-1-oxo-2,3-dihydro-1H-isoindol-5-yl]-2-azaspiro[3.5]nonan-7-yl}methyl)piperazin-1-yl]pyrimidin-4-yl}amino)-2-oxo-1-(propan-2-yl)-1,2-dihydroquinolin-3-yl]oxy}-N-methylacetamide], the DC50 was 10 to 50 nM. The Dmax (T47D) is 50 to 70%.

`CNC(=O)COc1cc2cc(Nc3nc(N4CCC5(CCN(CC6(F)CCN(c7cc(F)cc8c7CN(C7CCC(=O)NC7=O)C8=O)CC6)CC5)CC4)ncc3Cl)ccc2n(C(C)C)c1=O` (stereo not drawn) [Compound 109, 2-{[6-({5-chloro-2-[9-({1-[2-(2,6-dioxopiperidin-3-yl)-6-fluoro-1-oxo-2,3-dihydro-1H-isoindol-4-yl]-4-fluoropiperidin-4-yl}methyl)-3,9-diazaspiro [5.5]undecan-3-yl]pyrimidin-4-yl}amino)-2-oxo-1-(propan-2-yl)-1,2-dihydroquinolin-3-yl]oxy}-N-methylacetamide]: under setting [1], the DC50 is less than 10 nM and the Dmax fell in the range of 50 to 70%.

For the compound `CNC(=O)COc1cc2cc(Nc3nc(N4CCC(OC5CCC6(CC5)CN(c5cc(F)cc7c5CN(C5CCC(=O)NC5=O)C7=O)C6)CC4)ncc3Cl)ccc2n(C(C)C)c1=O` (stereo not drawn) [Compound 299, 2-{[6-({5-chloro-2-[4-({2-[2-(2,6-dioxopiperidin-3-yl)-6-fluoro-1-oxo-2,3-dihydro-1H-isoindol-4-yl]-2-azaspiro[3.5]nonan-7-yl}oxy)piperidin-1-yl]pyrimidin-4-yl}amino)-2-oxo-1-(propan-2-yl)-1,2-dihydroquinolin-3-yl]oxy}-N-methylacetamide], the DC50 is less than 10 nM. Further, the Dmax (T47D) lay within 50 to 70%.

As for `CNC(=O)COc1cc2cc(Nc3nc(N4CCC(C(C)(C)N5CCC6(CC5)CN(c5cccc7c5C(=O)N(C5CCC(=O)NC5=O)C7=O)C6)CC4)ncc3Cl)ccc2n(C(C)C)c1=O` (stereo not drawn) [Compound 46, 2-{[6-({5-chloro-2-[4-(2-{2-[2-(2,6-dioxopiperidin-3-yl)-1,3-dioxo-2,3-dihydro-1H-isoindol-4-yl]-2,7-diazaspiro [3.5]nonan-7-yl}propan-2-yl)piperidin-1-yl]pyrimidin-4-yl}amino)-2-oxo-1-(propan-2-yl)-1,2-dihydroquinolin-3-yl]oxy}-N-methylacetamide], under setting [1], the DC50 is less than 10 nM and the Dmax was not below 70%.

As for `CNC(=O)COc1cc2c(F)c(Nc3cc(N4CCC(F)(CN5CCC6(CC5)CN(c5ccc7c(c5)CN(C5CCC(=O)NC5=O)C7=O)C6)CC4)ncc3Cl)ccc2n(C(C)C)c1=O` (stereo not drawn) [Compound 262, 2-{[6-({5-chloro-2-[4-({2-[2-(2,6-dioxopiperidin-3-yl)-1-oxo-2,3-dihydro-1H-isoindol-5-yl]-2,7-diazaspiro[3.5]nonan-7-yl}methyl)-4-fluoropiperidin-1-yl]pyridin-4-yl}amino)-5-fluoro-2-oxo-1-(propan-2-yl)-1,2-dihydroquinolin-3-yl]oxy}-N-methylacetamide], the DC50 was less than 10 nM. The Dmax (T47D) was 50 to 70%.

`CNC(=O)COc1cc2cc(Nc3nc(N4CCC(O[C@H]5C[C@H](N6CCN(c7ccc8c(c7)C(=O)N(C7CCC(=O)NC7=O)C8=O)C[C@H]6C)C5)CC4)ncc3Cl)ccc2n(C(C)C)c1=O` (stereo partly drawn) [Compound 263, 2-({6-[(5-chloro-2-{4-[(1r,3r)-3-[(2R)-4-[2-(2,6-dioxopiperidin-3-yl)-1,3-dioxo-2,3-dihydro-1H-isoindol-5-yl]-2-methylpiperazin-1-yl]cyclobutoxy]piperidin-1-yl}pyrimidin-4-yl)amino]-2-oxo-1-(propan-2-yl)-1,2-dihydroquinolin-3-yl}oxy)-N-methylacetamide]: the DC50 was less than 10 nM. The Dmax (T47D) lay within 50 to 70%.

Consider `CNC(=O)COc1cc2cc(Nc3nc(N4CCC(O[C@H]5C[C@H](N6CCN(c7ccc8c(c7Cl)CN(C7CCC(=O)NC7=O)C8=O)[C@H](C)C6)C5)CC4)ncc3Cl)ccc2n(C(C)C)c1=O` (stereo partly drawn) [Compound 202, 2-({6-[(5-chloro-2-{4-[(1r,3r)-3-[(3R)-4-[4-chloro-2-(2,6-dioxopiperidin-3-yl)-1-oxo-2,3-dihydro-1H-isoindol-5-yl]-3-methylpiperazin-1-yl]cyclobutoxy]piperidin-1-yl}pyrimidin-4-yl)amino]-2-oxo-1-(propan-2-yl)-1,2-dihydroquinolin-3-yl}oxy)-N-methylacetamide], for which, under setting [1], the DC50 is less than 10 nM and the Dmax is not below 70%.

Regarding `CNC(=O)COc1cc2cc(Nc3nc(N4CCC(N5CCC6(C5)CN(C5CCN(c7ccc8c(c7)CN(C7CCC(=O)NC7=O)C8=O)CC5)C6)CC4)ncc3Cl)ccc2n(C(C)C)c1=O` (stereo not drawn) [Compound 235, 2-{[6-({5-chloro-2-[4-(2-{1-[2-(2,6-dioxopiperidin-3-yl)-1-oxo-2,3-dihydro-1H-isoindol-5-yl]piperidin-4-yl}-2,6-diazaspiro[3.4]octan-6-yl)piperidin-1-yl]pyrimidin-4-yl}amino)-2-oxo-1-(propan-2-yl)-1,2-dihydroquinolin-3-yl]oxy}-N-methylacetamide], the DC50 is less than 10 nM. For the same compound, the Dmax (T47D) lay within 50 to 70%.
